Measurements taken from patent US7718715B2, “pH-modified latex comprising a synergistic combination of biocides” (S.C. Johnson & Son, Inc., priority 2004, dated 2010).

What was measured:
Assay type in all cases: cell-based
Candida albicans #10231 = assay: Challenge Test (Antimicrobial Effectiveness Test), yeast inoculum; parameters: key to Challenge Test result: Yeast C. albicans: Fail: Recovery of surviving organisms at 14 days was a failing result for the challenge test; details: for Challenge Test result: Yeast C. albicans: stabilized acrylic latex A, DN 22%
Protocol: The following cultures were obtained from American Type Culture Collection (ATCC) at 10801 University Boulevard, Manassas, Va. 20110-2209: Escherichia coli #11229, Pseudomonas aeruginosa #15442, Candida albicans #10231, Aspergillus niger #6275.
The yeast inoculum was 0.10 ml of a 72-hr±4 hr culture of C. albicans in 25 grams of sample to give approximately 2×10^5 CFU/g. The C. albicans culture was grown in Potato Dextrose Broth (Difco Laboratories, Detroit, Mich.) at 28° C.
(§1) Each of the 25-g samples were inoculated or challenged with 0.10 ml of the bacterial inoculum, the yeast inoculum, and the mold inoculum respectively on day-0 and day-14. All samples were stored at ambient temperature. Each sample (10 microliter) was streaked on appropriate agar plates (bacteria on Tryptic Soy Agar (Difco Laboratories, Detroit, Mich.) plates with neutralizer and yeast/mold on Potato Dextrose Agar (Difco Laboratories, Detroit, Mich.) plates with neutralizer) on day-1, day-2, day-3, day-7, day-14, day-15, day-16, day-17, day-21, and day-28 to test for survivors. Streaked plates were incubated at appropriate temperature and time (48-hr at 35±2° C. for bacteria and 72-hr at 28±2° C. for yeast/mold). On day-14, each sample was re-inoculated with appropriate inoculum after streaking on agar plates. Plates were read after incubation time. Recovery of surviving organisms at 14 days was a failing result for the challenge test.
Biocides were always added after the reaction has been completed and after the batch has been cooled to <50° C. The desired temperature was dependent on the specific biocide. Many biocides become deactivated if exposed to high temperatures for an extended time. Each biocide was diluted with about 5× its weight with DI water and slowly added to the batch with good agitation. The dilution is to prevent the biocide from shocking the latex. The batch was mixed for a minimum of 20 minutes after the biocide was added to ensure good incorporation. If any temporary destabilization to the latex had occurred, it had time to recover prior to filtration.
The Challenge Test is a qualitative laboratory procedure used to differentiate poorly and marginally preserved products from well-preserved products. Products are intentionally inoculated with test organisms and then evaluated by use of streak plating technique to determine if microbial reduction has been attained.

C. albicans & A. niger = assay: Challenge Test end point on yeast and mold and Synergy Index (Kull); details: Bioban CS-1135 acting alone (QA); test stabilized acrylic latex A
Protocol: as §1, with “On day-14, each sample was re-inoculated with appropriate inoculum after streaking on agar plates.” left out, “Recovery of surviving organisms at 14 days was a failing result for the challenge test.” left out
Synergism was determined by the method described by F. C. […] Eisman, H. D. Sylwestrowicz, and R. L. Mayer in Applied Microbiology, Volume 9, pages 538-541, 1961 using the ratio determined by • Synergy Index (SI)=Qa/QA+Qb/QB=1 is additivity, <1 is synergism, and >1 is antagonism • where, • Qa=concentration of compound A, in the mixture, producing an end point • QA=concentration of compound A, acting alone, producing an end point • Qb=concentration of compound B, in the mixture, producing an end point • QB=concentration of compound B, acting alone, producing an end point

[1] = system: Escherichia coli, Pseudomonas aeruginosa, Candida albicans, Aspergillus niger; assay: Challenge Test, all test organisms; details: stabilized acrylic latex A
Protocol: The following cultures were obtained from American Type Culture Collection (ATCC) at 10801 University Boulevard, Manassas, Va. 20110-2209: Escherichia coli #11229, Pseudomonas aeruginosa #15442, Candida albicans #10231, Aspergillus niger #6275. The bacterial inoculum was 0.10 ml of a 1:1 mixture of the 24-hr±4 hr culture of E. coli and P. aeruginosa in 25 grams of sample to give approximately 4×10^6 CFU/g. Both E. coli culture and the P. aeruginosa culture were grown in Nutrient Broth (Difco Laboratories, Detroit, Mich.) at 35° C. The yeast inoculum was 0.10 ml of a 72-hr±4 hr culture of C. albicans in 25 grams of sample to give approximately 2×10^5 CFU/g. The C. albicans culture was grown in Potato Dextrose Broth (Difco Laboratories, Detroit, Mich.) at 28° C. The mold inoculum was 0.10 ml of A. niger culture specimen in 25 grams of sample to give approximately 2×10^5 CFU/g. The culture specimen was obtained from 7-day-old A. niger culture grown on Sabouraud Dextrose Agar (Difco Laboratories, Detroit, Mich.) with 0.2% Triton X-100 in 0.85% saline. Each of the 25-g samples were inoculated or challenged with 0.10 ml of the bacterial inoculum, the yeast inoculum, and the mold inoculum respectively on day-0 and day-14. All samples were stored at ambient temperature. […] Plates were read after incubation time. […]

With `CC1(C)COCN1` [Bioban CS-1135, 4,4-dimethyl-oxazolidine] the “Challenge Test result: Yeast C. albicans” value (Candida albicans #10231; 0.10% Bioban CS-1135, 0.00% Bronopol, pH 6.68) was “Fail”, the “Challenge Test result: Yeast C. albicans” value (Candida albicans #10231; 0.20% Bioban CS-1135, 0.00% Bronopol, pH 6.69) was “Fail” and the “Challenge Test result: Yeast C. albicans” value (Candida albicans #10231; 0.80% Bioban CS-1135, 0.00% Bronopol, pH 6.62) was “Fail”. The “Challenge Test result: Yeast C. albicans” value (Candida albicans #10231; 1.20% Bioban CS-1135, 0.00% Bronopol, pH 6.64) was “Fail”, the “Challenge Test result: Yeast C. albicans” value (Candida albicans #10231; 2.00% Bioban CS-1135, 0.00% Bronopol, pH 6.82) was “Pass” and the “killing of yeast (C. albicans)” value (Candida albicans #10231; BIOBAN CS-1135 at 1.2%, acrylic latex A) was “failed to kill”. The “control of Candida albicans” value (Candida albicans #10231; maximum allowable level, test stabilized acrylic latex) was “failed to control”, the “Compound A end-point in %” value (C. albicans & A. niger) was 2% and the “concentration required to kill all organisms” value [1] was 2.0%.

`O=[N+]([O-])C(Br)(CO)CO` [Bronopol, 2-bromo-2-nitro-1,3-propanediol] was tested, and the “Challenge Test result: Yeast C. albicans” value (Candida albicans #10231; 0.10% Bronopol (30% active), 0.00% Bioban CS-1135, pH 6.64, Table 1) was “Fail”, the “Challenge Test result: Yeast C. albicans” value (Candida albicans #10231; 0.10% Bronopol (30% active), 0.00% Dowicil 75, pH 6.64, Table 3) was “Pass” and the “Challenge Test result: Yeast C. albicans” value (Candida albicans #10231; 0.20% Bronopol (30% active), 0.00% Bioban CS-1135, pH 6.65, Table 1) was “Fail”. For the same compound, the “Challenge Test result: Yeast C. albicans” value (Candida albicans #10231; 0.20% Bronopol (30% active), 0.00% Dowicil 75, pH 6.65, Table 3) was “Pass”, the “Challenge Test result: Yeast C. albicans” value (Candida albicans #10231; 0.50% Bronopol (30% active), 0.00% Bioban CS-1135, pH 6.58, Table 1) was “Pass” and the “Challenge Test result: Yeast C. albicans” value (Candida albicans #10231; 0.50% Bronopol (30% active), 0.00% Dowicil 75, pH 6.58, Table 3) was “Pass”. For the same compound, the “Challenge Test result: Yeast C. albicans” value (Candida albicans #10231; 0.80% Bronopol (30% active), 0.00% Bioban CS-1135, pH 6.57, Table 1) was “Pass”, the “Challenge Test result: Yeast C. albicans” value (Candida albicans #10231; 0.80% Bronopol (30% active), 0.00% Dowicil 75, pH 6.57, Table 3) was “Pass” and the “Challenge Test result: Yeast C. albicans” value (Candida albicans #10231; 1.20% Bronopol (30% active), 0.00% Bioban CS-1135, pH 6.57, Table 1) was “Pass”. The “Challenge Test result: Yeast C. albicans” value (Candida albicans #10231; 1.20% Bronopol (30% active), 0.00% Dowicil 75, pH 6.57, Table 3) was “Pass” and the “concentration required to kill all organisms” value [1] was 0.5%.
